Measurements from article PMC3914206.

What was measured:
Format in all cases: binding
panel of 442 kinases [1] = molecular target: T1, panel of 442 kinases (Homo sapiens, UniProt P42336, Q546K); conditions: Compound Concentration 10 µM
T1 construct: purchased KINOMEscan
Excerpt: (§1) We assessed the selectivity of members of this scaffold using the KINOMEscan methodology across a near comprehensive panel of 442 kinases [[18,27]].

panel of 442 kinases [2] = molecular target: T2, panel of 442 kinases (Homo sapiens, UniProt Q16288); conditions: kinase TRKC; compound concentration 10 µM
T2 construct: purchased KINOMEscan
Excerpt: as §1

panel of 442 kinases [3] = molecular target: T3, panel of 442 kinases (Homo sapiens, UniProt P51451); conditions: Compound Concentration 10 µM
T3 construct: purchased KINOMEscan
Excerpt: as §1

panel of 442 kinases [4] = molecular target: T4, panel of 442 kinases (Homo sapiens, UniProt Q9Y2K2); conditions: Compound Concentration 10 µM
T4 construct: purchased KINOMEscan
Excerpt: as §1

T1 sequence (P42336 whole entry Q546K): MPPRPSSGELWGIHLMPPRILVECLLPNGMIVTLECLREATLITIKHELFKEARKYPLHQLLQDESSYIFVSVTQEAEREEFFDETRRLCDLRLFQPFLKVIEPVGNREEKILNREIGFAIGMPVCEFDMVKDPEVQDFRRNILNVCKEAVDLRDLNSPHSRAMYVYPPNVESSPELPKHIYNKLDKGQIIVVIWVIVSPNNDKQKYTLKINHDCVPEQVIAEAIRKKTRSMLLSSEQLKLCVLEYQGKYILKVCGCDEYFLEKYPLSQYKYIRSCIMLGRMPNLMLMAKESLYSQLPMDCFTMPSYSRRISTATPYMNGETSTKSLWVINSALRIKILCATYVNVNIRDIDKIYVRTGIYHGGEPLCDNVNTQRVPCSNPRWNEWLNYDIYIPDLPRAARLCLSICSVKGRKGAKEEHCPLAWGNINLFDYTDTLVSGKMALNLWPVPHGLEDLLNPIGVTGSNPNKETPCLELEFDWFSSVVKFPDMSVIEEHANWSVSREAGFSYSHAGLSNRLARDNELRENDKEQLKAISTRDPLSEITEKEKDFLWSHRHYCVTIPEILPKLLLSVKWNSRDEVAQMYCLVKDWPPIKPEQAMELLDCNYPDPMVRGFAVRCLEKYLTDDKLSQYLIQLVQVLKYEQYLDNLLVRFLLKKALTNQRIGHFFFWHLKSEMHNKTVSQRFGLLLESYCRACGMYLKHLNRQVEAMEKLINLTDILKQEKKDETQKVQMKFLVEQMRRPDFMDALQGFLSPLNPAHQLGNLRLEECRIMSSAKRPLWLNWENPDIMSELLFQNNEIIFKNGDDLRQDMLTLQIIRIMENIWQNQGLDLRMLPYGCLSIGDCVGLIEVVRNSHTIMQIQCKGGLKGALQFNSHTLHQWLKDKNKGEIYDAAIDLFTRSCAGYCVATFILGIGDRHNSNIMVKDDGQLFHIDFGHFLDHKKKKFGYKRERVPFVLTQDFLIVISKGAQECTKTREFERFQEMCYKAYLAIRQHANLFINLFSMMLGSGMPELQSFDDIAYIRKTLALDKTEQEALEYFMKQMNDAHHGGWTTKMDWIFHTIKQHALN
T4 sequence (Q9Y2K2 whole entry): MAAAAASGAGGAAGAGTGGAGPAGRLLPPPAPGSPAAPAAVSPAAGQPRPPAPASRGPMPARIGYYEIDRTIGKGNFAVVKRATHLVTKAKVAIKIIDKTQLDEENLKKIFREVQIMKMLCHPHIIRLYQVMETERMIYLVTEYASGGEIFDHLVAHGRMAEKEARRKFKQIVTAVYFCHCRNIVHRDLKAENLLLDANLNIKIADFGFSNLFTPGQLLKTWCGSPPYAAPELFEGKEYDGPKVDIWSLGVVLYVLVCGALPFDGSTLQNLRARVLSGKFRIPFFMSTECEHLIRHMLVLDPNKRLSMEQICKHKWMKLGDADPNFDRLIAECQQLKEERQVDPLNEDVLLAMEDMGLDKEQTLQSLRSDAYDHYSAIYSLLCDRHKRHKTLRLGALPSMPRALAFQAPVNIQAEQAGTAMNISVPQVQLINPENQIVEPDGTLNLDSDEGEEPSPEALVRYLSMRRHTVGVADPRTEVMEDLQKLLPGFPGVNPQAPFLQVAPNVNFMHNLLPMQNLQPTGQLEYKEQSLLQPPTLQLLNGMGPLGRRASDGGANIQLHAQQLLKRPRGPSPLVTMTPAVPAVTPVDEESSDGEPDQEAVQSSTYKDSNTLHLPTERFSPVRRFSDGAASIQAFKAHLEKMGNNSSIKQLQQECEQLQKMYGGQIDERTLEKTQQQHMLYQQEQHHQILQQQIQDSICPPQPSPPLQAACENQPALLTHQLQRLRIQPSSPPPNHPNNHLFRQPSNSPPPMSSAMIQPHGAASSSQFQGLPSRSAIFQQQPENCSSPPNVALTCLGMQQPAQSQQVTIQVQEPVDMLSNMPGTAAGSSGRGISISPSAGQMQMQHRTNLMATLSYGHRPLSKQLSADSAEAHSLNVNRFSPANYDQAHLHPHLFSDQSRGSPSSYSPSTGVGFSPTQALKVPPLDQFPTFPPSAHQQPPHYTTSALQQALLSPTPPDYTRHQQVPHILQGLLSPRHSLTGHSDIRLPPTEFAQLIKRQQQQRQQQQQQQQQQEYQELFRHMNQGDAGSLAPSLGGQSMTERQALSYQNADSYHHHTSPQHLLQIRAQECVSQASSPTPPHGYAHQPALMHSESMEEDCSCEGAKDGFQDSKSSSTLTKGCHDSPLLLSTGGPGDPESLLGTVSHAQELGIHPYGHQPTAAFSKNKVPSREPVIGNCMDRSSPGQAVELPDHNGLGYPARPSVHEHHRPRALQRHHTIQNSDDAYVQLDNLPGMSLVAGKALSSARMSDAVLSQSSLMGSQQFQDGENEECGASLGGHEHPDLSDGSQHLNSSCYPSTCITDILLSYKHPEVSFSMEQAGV
T3 sequence (P51451 whole entry): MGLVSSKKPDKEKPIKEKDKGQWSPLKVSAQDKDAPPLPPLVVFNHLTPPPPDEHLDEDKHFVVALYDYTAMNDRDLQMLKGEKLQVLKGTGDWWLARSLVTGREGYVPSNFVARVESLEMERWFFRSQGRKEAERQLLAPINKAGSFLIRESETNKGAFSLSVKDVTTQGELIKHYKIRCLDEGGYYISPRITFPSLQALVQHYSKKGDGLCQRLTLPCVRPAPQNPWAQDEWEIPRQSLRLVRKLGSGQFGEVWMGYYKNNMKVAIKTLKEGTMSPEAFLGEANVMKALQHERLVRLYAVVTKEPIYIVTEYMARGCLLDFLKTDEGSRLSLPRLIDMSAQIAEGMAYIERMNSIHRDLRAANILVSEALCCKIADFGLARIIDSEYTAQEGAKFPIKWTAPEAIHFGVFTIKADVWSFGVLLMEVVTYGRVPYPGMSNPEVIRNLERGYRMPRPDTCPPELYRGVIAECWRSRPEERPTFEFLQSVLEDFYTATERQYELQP
T2 sequence (Q16288 32-839): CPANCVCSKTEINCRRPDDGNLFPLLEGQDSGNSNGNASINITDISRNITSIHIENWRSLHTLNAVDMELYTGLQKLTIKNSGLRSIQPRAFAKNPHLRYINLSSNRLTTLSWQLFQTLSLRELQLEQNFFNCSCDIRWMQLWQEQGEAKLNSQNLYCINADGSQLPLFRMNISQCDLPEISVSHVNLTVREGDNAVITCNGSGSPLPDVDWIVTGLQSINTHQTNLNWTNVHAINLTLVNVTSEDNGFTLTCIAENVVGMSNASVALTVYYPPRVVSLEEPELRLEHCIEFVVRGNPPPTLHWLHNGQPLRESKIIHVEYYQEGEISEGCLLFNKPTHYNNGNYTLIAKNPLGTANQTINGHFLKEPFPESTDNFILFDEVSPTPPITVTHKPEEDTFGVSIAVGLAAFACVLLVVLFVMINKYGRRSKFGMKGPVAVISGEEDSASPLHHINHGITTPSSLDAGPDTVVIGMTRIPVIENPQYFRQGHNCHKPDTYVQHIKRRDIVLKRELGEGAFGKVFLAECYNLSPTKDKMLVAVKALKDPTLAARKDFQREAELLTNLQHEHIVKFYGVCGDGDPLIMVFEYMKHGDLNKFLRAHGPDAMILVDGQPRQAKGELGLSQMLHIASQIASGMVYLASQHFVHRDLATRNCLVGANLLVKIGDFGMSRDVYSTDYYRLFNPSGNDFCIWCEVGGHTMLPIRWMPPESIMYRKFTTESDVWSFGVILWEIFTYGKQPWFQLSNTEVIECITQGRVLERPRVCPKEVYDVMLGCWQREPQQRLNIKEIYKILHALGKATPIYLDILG

SMILES | KINOMEscan: PIK3CA(Q546K) (panel of 442 kinases [1]) | % Ctrl, TRKC (panel of 442 kinases [2]) [% Ctrl] | KINOMEscan: BLK (panel of 442 kinases [3]) | KINOMEscan: QSK (panel of 442 kinases [4])
COc1cc(C(=O)N2CCC(N3CCN(C)CC3)CC2)ccc1Nc1ncc2c(n1)N(C1CCCC1)c1ccccc1C(=O)N2C [Compound 25, 11-cyclopentyl-2-((2-methoxy-4-(4-(4-methylpiperazin-1-yl)piperidine-1-carbonyl)phenyl)amino)-5-methyl-5H-benzo[e]pyrimido[5,4-b][1,4]diazepin-6(11H)-one] | 100 | 100 | 100 | 100
CCOc1cc(C(=O)N2CCC(N3CCN(C)CC3)CC2)ccc1Nc1ncc2c(n1)N(C1CCCC1)c1ccccc1C(=O)N2C [Compound 26] | 99 | 90 | 100 | 100
COc1cc(C(=O)N2CCC(N3CCN(C)CC3)CC2)ccc1Nc1ncc2c(n1)N1CCc3cccc(c31)C(=O)N2C [Compound 24] | 98 | 100 |  | 
COc1cc(C(=O)N2CCC(N3CCN(C)CC3)CC2)ccc1Nc1ncc2c(n1)N(C)c1ccccc1C(=O)N2C [15 (LRRK2-IN-1)] | 91 | 100 | 97 | 100
